US8653003B2, “Pyrazol-4-yl carboxamide derivatives as microbiocides” (Syngenta Participations AG, priority 2011, dated 2014)

Tests used:
[1] = tested on: Erysiphe graminis f. sp. tritici; assay: Action against Erysiphe graminis f. sp. tritici (wheat powdery mildew), wheat leaf segments; assay type: in vivo; conditions: Blumeria graminis, foliar, 168 h; 0.02% active ingredient sprayed on wheat leaf segments, assessed 7 days after inoculation; read-out: preventive fungicidal activity (inhibition)
Description: (§1) Wheat leaf segments were placed on agar in multiwell plates (24-well format) and sprayed with test solutions (0.02% active ingredient). After drying, the leaf disks were inoculated with a spore suspension of the fungus. After appropriate incubation the activity of a compound was assessed 7 days after inoculation as preventive fungicidal activity.

Botrytis cinerea = assay: Action against Botrytis cinerea - fungal growth assay; assay type: cell-based; conditions: 0.002% active ingredient, PDB broth, 24° C., photometric after 3-4 days
Description: (§2) Conidia of the fungus from cryogenic storage was directly mixed into nutrient broth (PDB potato dextrose broth). After placing a (DMSO) solution of the test compounds (0.002% active ingredient) into a microtiter plate (96-well format) the nutrient broth containing the fungal spores was added. The test plates were incubated at 24° C. and the inhibition of growth was measured photometrically after 3-4 days. The activity of a compound was expressed as fungal growth inhibition (0=no growth inhibition, ratings of 80% to 99% mean good to very good inhibition, 100%=complete inhibition).

Pyrenophora teres = assay: Action against Pyrenophora teres (net blotch) on barley leaf segments; assay type: in vivo; conditions: foliar, 96 h, 0.02% active ingredient sprayed on barley leaf segments, assessed 4 days after inoculation, read-out: preventive fungicidal activity (inhibition)
Description: as §1, with “Barley” for “Wheat”, “4” for “7”

Puccinia recondita [2] = assay: Protective action against Puccinia recondita (brown rust) on wheat leaf segments; assay type: in vivo; conditions: foliar, 192 h, 0.02% active ingredient sprayed on wheat leaf segments, assessed 8 days after inoculation, read-out: preventive fungicidal activity (inhibition)
Description: as §1, with “8” for “7”

Puccinia recondita [3] = assay: Curative action against Puccinia recondita (brown rust) on wheat leaf segments; assay type: in vivo; conditions: foliar, 0.02% active ingredient sprayed one day after inoculation, assessed 8 days after inoculation, read-out: curative fungicidal activity (inhibition)
Description: Wheat leaf segments were placed on agar in multiwell plates (24-well format) and inoculated with a spore suspension of the fungus. One day after inoculation the leaf segments were sprayed with test solutions (0.02% active ingredient). After appropriate incubation the activity of a compound was assessed 8 days after inoculation as curative fungicidal activity.

Septoria tritici = assay: Action against Septoria tritici - fungal growth assay; assay type: cell-based; conditions: Zymoseptoria tritici; 0.002% active ingredient, PDB broth, 24° C., photometric after 72 hrs
Description: as §2, with “storage were” for “storage was”, “was determined” for “was measured”, “after 72 hrs.” for “after 3-4 days.”

[4] = tested on: Mycosphaerella arachidis (Cercospora arachidicola [anamorph]); assay: Action against Mycosphaerella arachidis (early leaf spot of groundnut) - fungal growth assay; assay type: cell-based; conditions: 0.002% active ingredient, PDB broth, 24° C., photometric after 6-7 days
Description: as §2, with “storage were” for “storage was”, “broth (Pdb” for “broth (PDB”, “after 6-7” for “after 3-4”

melting point [°C] | Compound | inhibition at 0.02 % strength [1] [%] | inhibition at 0.002 % strength (Botrytis cinerea) [%] | inhibition at 0.02 % strength (Pyrenophora teres) [%] | inhibition at 0.02 % strength (Puccinia recondita [2]) [%] | inhibition at 0.02 % strength (Puccinia recondita [3]) [%] | inhibition at 0.002 % strength (Septoria tritici) [%] | inhibition at 0.002 % strength [4] [%]
91 to 95 | CON(C(=O)c1cn(C)nc1C(F)F)C1CCCc2ccccc21 (stereo not shown) [Compound 1.001] | ≥ 80 | ≥ 80 | ≥ 80 | ≥ 80 | ≥ 80 | ≥ 80 | ≥ 80
– | CON(C(=O)c1cn(C)nc1C(F)F)C1CCCc2ccc(Cl)cc21 (stereo not shown) [Compound 1.003, 3-difluoromethyl-1-methyl-1H-pyrazole-4-carboxylic acid (7-chloro-1,2,3,4-tetrahydro-naphthalen-1-yl)-methoxy-amide] | ≥ 80 | – | ≥ 80 | ≥ 80 | ≥ 80 | ≥ 80 | ≥ 80
– | CON(C(=O)c1cn(C)nc1C(F)F)C1CCCCc2ccc(I)cc21 (stereo not shown) [Compound 1.062, 3-difluoromethyl-1-methyl-1H-pyrazole-4-carboxylic acid (3-iodo-6,7,8,9-tetrahydro-5-H-benzocyclohepten-5-yl)-methoxy-amide] | – | – | – | ≥ 80 | ≥ 80 | ≥ 80 | ≥ 80
– | CON(C(=O)c1cn(C)nc1C(F)F)C1c2ccccc2CCCC1F (stereo not shown) [Compound 1.065, 3-difluoromethyl-1-methyl-1H-pyrazole-4-carboxylic acid (6-fluoro-6,7,8,9-tetrahydro-5-H-benzocyclohepten-5-yl)-methoxy-amide] | ≥ 80 | ≥ 80 | ≥ 80 | ≥ 80 | ≥ 80 | ≥ 80 | ≥ 80
